“Also recorded” adds a separate entry of the source.
Legend:
[1] = system: small intestine; details: oral
[2] = system: stomach; assay: Acute macroscopic gastric damage after oral dosing; type: in vivo, Sprague-Dawley rats; details: for Gastric Ulceration / macroscopic gastric ulcerations (in words, FIG. 8(1)): oral; for macroscopic gastric ulcerations (in words, FIG. 8(1)): IndoH 10 mg/kg or equimolar Indo dose in 2% (w/v) CMC solution
Description: Rats were fasted with access to water for 24 h prior to dosing and 3 hours post dosing. Three hours after administration of the test compound, the rats were euthanased and the stomach was excised and opened by incision along the greater curvature.
After the aforementioned anti-inflammatory activity experiments, the rats were immediately euthanased. Similarly, the stomach was excised and opened by incision along the greater curvature for the examination of the macroscopic ulcerations (mm^2).
Since there were no significant differences in the results obtained by the two methods, the results shown in FIG. 8(1) are those of the two methods combined.

[3] = system: carrageenan-induced paw edema; assay: Inhibition of carrageenan-induced paw edema (rat paw oedema assay); type: in vivo, Sprague-Dawley rats; details: oral
[4] = oral administration; cited from earlier work
[5] = 10 mg/kg of Indo dispersed in MCT paste
[6] = 1 mg/kg of Indo dispersed in MCT paste
[7] = 2 mg/kg of Indo dispersed in MCT paste

COc1ccc2c(c1)c(CC(=O)O)c(C)n2C(=O)c1ccc(Cl)cc1 [IndoH, Indomethacin, reference compound]
Small Intestine Ulceration (mm^2) [1, 5]: 80 ± 7 mm^2
Gastric Ulceration [2, 5]: 115 ± 30 mm^2
Inhibition % [3, 5]: 54 ± 12%

CN(C)C=O.CN(C)C=O.COc1ccc2c(c1)c(CC(=O)[O-])c(C)n2C(=O)c1ccc(Cl)cc1.COc1ccc2c(c1)c(CC(=O)[O-])c(C)n2C(=O)c1ccc(Cl)cc1.COc1ccc2c(c1)c(CC(=O)[O-])c(C)n2C(=O)c1ccc(Cl)cc1.COc1ccc2c(c1)c(CC(=O)[O-])c(C)n2C(=O)c1ccc(Cl)cc1.[Cu+2].[Cu+2] [[Cu2(Indo)4(DMF)2], bis(N,N-dimethylformamide)tetrakis-μ-(O,O′-Indo)dicopper(II) complex]
small intestinal toxicity / ulceration (in words, FIG. 8(2)) ([1]; equimolar Indo dose (10 mg/kg IndoH) in 2% (w/v) CMC solution, 24 h after dosing): low small intestinal toxicity
macroscopic gastric ulcerations (in words, FIG. 8(1)) [2]: significant reductions (P<0.01) in gastric ulcerations as compared to those induced by IndoH
gastrointestinal toxicity compared with indomethacin (in words) [4]: less gastrointestinal toxicity than indomethacin

Bis(η^1-O-Indo)tris(pyridine)copper(II) [[Cu(Indo)2(Py)3], reference compound]
macroscopic gastric ulcerations (in words, FIG. 8(1)) [2]: no significant difference in the gastric ulcerations induced by [Cu(Indo)2(Py)3] or IndoH
efficacy in reducing inflammation (in words, FIG. 9) ([3]; equimolar Indo dose (10 mg/kg IndoH) in 2% (w/v) CMC solution): as effective as [Cu2(Indo)4(DMF)2] in reducing inflammation

Bis(η^2-O,O′-Indo)bis(pyrrolidine)copper(II)-2-pyrrolidine monohydrate [[Cu(Indo)2(Pyrro)2]]
macroscopic gastric ulcerations (in words, FIG. 8(1)) ([2]; monohydrate): significant reductions (P<0.01) in gastric ulcerations as compared to those induced by IndoH; also recorded: significant reduction in gastric ulceration compared with [Cu2(Indo)4(DMF)2]
average gastric ulceration ([2]; second experiment, different sample precipitated from solution with diethyl ether, four rats, same dose of Indo): 21 mm^2

bis(η^2-O,O′-Indo)bis(4-picoline)copper(II) [[Cu(Indo)2(4-pic)2]]
Inhibition % [3, 6]: 28%
Inhibition % [3, 7]: 54%
Inhibition % ([3]; 2 mg/kg of Indo in 2% CMC): 16%
Inhibition % [3, 5]: 57 ± 19%

bis(η^2-O,O′-Indo)bis(imidazole)copper(II) [[Cu(Im)2(Indo)2]]
Gastric Ulceration [2, 6]: 2 ± 2 mm^2
Gastric Ulceration [2, 7]: 3 ± 42 mm^2
Gastric Ulceration ([2]; 2 mg/kg of Indo in 2% CMC): 3 ± 3 mm^2
Gastric Ulceration [2, 5]: 55 ± 42 mm^2
Inhibition % [3, 6]: 31%
Inhibition % [3, 7]: 39%
Inhibition % ([3]; 2 mg/kg of Indo in 2% CMC): 11%
Inhibition % [3, 5]: 45 ± 16%

Source: patent US20090042848A1, “COPPER COMPLEXES” (priority 2005, published 2009)
